Source: patent US5260330A, “Substituted anilides” (BASF Aktiengesellschaft, priority 1990, dated 1993)
Counter-ions that a name gives are not always drawn.

System: guinea pig hearts
Test: ECG measurement of QT interval prolongation in isolated guinea pig hearts (Langendorff perfusion)
Set-up: species or system guinea pig (male Duncin-Hartley)
Conditions: for EC20: Cavia porcellus, 0.25 h, isolated guinea pig heart, Langendorff perfusion, 37° C, cumulative administration at 15 min intervals into the perfusate, ED20% by linear regression of log dose, read-out: ED20% (dose at which there is a 20% increase in the QT interval from the initial figure); for Relative effect ED20% (D-sotalol)/ED20% (Ex.): ratio relative to D-sotalol, QT interval, guinea pig heart
Text: In these the cardiac cycle is divided into systole (contraction of the heart), also called QT interval, and diastole (relaxation of the heart with filling of the ventricles). Repolarization inhibitors increase the QT interval with a negligible effect on the atrioventricular conduction time (PQ interval) and the period of isometric contraction (QRS time, from the start of systole until the semilunar valves open) (see Pschyrembel, 254th edition, 1982).
The activity of the compounds according to the invention as repolarization inhibitors can be investigated in animal experiments by ECG measurements on, for example, guinea pig hearts (see Basic Res. Cardiol. 82 (1987) 437; J. Pharmacol. Methods 21 (1989) 195). Used to compare the activities of a number of substances is, for example, the dose of an agent at which there is a 20% increase in the QT interval from the initial figure (ED20%).This is done by plotting the logarithm of the doses of the particular substances against the experimentally found relative changes in the QT interval, and using linear regression to determine the equation of a straight line from which the ED20% can be calculated.
This method was used to determine the ED20% values for the compounds of Examples 2 and 3 (see Table). D-sotalol was used as comparative substance.
The experimental animals were male Duncin-Hartley guinea pigs with a body weight of 300 to 350 g. 30 min after administration of 1250 I.U. of heparin/kg of body weight into the abdominal cavity, the animals were sacrificed by a blow to the back of the neck. After the common carotid arteries had been cut for exsanguination, the thoracic cavity was opened, and the heart was dissected out and attached to a perfusion apparatus. The Langendorff perfusion was carried out with Krebs-Henseleit solution (NaCl 6896 mg/l; KCl 350 mg/l; MgSO4 285 mg/l; CaCl2 370 mg/l; KH2 PO4 161 mg/l; NaHCO3 2090 mg/l; glucose 2000 mg/l) enriched with oxygen and heated to 37° C. The perfusion volume per unit time was adjusted to 4 to 6 ml/min for a total volume of 100 ml, and the perfusion pressure was adjusted to 60 to 70 mm Hg. Circulating perfusion was carried out after equilibration for 30 min.
The ECG measurements were made via two silver electrodes attached to the surface of the heart in the upper region of the left coronary artery and on the rear of the heart at the level of the valve plane. The PQ and QT intervals, the QRS time and the heart rate were measured.
The substance was administered cumulatively at intervals of 15 min into the perfusate.

CC(C)NCC(O)c1ccc(NS(C)(=O)=O)cc1 [D-sotalol, 4'-[1-hydroxy-2-(isopropylamino)ethyl]methanesulfonanilide, reference compound]
EC20: 16000 nM

Cc1ccccc1C=CC(=O)Nc1cc(C)c(OCCN2CCCC2)c(C)c1 [Example 2, [3',5'-Dimethyl-4'-(2-(N-pyrrolidinyl)ethoxy)]-(2-methylphenyl)acrylanilidefumarate]
EC20: 500 nM | Relative effect ED20% (D-sotalol)/ED20% (Ex.): 32

Cc1ccccc1CCC(=O)Nc1cc(C)c(OCCN2CCCC2)c(C)c1 [Example 3, [3',5'-Dimethyl-4'-(2-(N-pyrrolidinyl)ethoxy)]-3-(2-methylphenyl)propionanilide fumarate]
EC20: 310 nM | Relative effect ED20% (D-sotalol)/ED20% (Ex.): 51
